From US6440990B1, “O-alkylated rapamycin derivatives and their use, particularly as immunosuppressants” (Novartis AG, priority 1992, dated 2002)

Legend:
[1] = Standard in vitro assays of immunosuppressivity in comparison to FK506 and rapamycin; format: cell-based
Source text: This can be shown in standard in vitro assays in comparison to FK506 and rapamycin. […] Nonimmunosuppressivity can also be shown in the in vivo models 1-7 above.

IL-2 transcription = conditions: IL-2 reporter gene assay; cited from earlier work
[2] = system: Balb/c spleen cells stimulated with irradiated CBA spleen cells; conditions: cited from earlier work
[3] = system: interleukin-6 (IL-6)-dependent mouse hybridoma cell line; conditions: cited from earlier work

| Compound | immunosuppressivity (in words) [1] | inhibition of IL-2 transcription (in words) (IL-2 transcription) | inhibition of the mixed lymphocyte reaction (in words) [2] | inhibition of IL-6 dependent T-cell proliferation (in words) [3] |
| --- | --- | --- | --- | --- |
| CO[C@H]1C[C@@H]2CC[C@@H](C)[C@@](O)(O2)C(=O)C(=O)N2CCCC[C@H]2C(=O)O[C@H]([C@H](C)C[C@@H]2CC[C@@H](O)[C@H](OC)C2)CC(=O)[C@H](C)/C=C(\C)[C@@H](OC)[C@@H](OC)C(=O)[C@H](C)C[C@H](C)/C=C/C=C/C=C/1C [Example 21, 28-O-Methyl-rapamycin] | not immunosuppressive |  |  |  |
| Rapamycin |  | not active | very potent inhibitors | strongly inhibits |
